Columns and labels:
[1] = system: human pluripotent stem cells; assay: 13-factor HD-DoE experiment, stage 1: 3-day effector treatment, gene expression modeled, with dynamic profile and factor criticality analysis; type: cell-based; settings: for LMX1A expression level in absence of the factor / FOXA2 expression level in absence of the factor / DMBX1 expression level in absence of the factor / OTX2 expression level in absence of the factor: stage 1 recipe, other four factors present; for LMX1A expression level in absence of the factor: 300 with all five factors; for FOXA2 expression level in absence of the factor: 600 with all five factors; for DMBX1 expression level in absence of the factor: 3000 with all five factors; for OTX2 expression level in absence of the factor: 12000 with all five factors
Excerpt: This example utilizes a method of High-Dimensional Design of Experiments (HD-DoE), as previously described in Bukys et al. (2020) Iscience 23:101346. The method employs computerized design geometries to simultaneously test multiple process inputs and offers mathematical modeling of a deep effector/response space. The method allows for finding combinatorial signaling inputs that control a complex process, such as during cell differentiation.
It allows testing of multiple plausible critical process parameters, as such parameters impact output responses, such as gene expression. Because gene expression provides hallmark features of the phenotype of, for example, a human cell, the method can be applied to identify, and understand, which signaling pathways control cell fate. In the current example, the HD-DOE method was applied with the intent to find conditions for induction of midbrain neural progenitor-expressed genes, directly from the pluripotent stem cell state.
To develop the recipe for each stage, the impact of agonists and antagonists of multiple signaling pathways (referred to herein as “effectors”) on the expression of two sets of 53 pre-selected genes after a 3-day treatment was tested and modeled. These effectors are small molecules or proteins that are commonly used during stepwise differentiation of stem cells to specific fates. The choice of the effectors to test was based on current literature on neural induction in the midbrain region of the developing brain and differentiation of stem cells to neural progenitors.
To test the effectors, experiments with at least 8 factors were designed that can assess the response of cells to 48 or more different combinations of effectors in a range of concentrations. To analyze the models, we focused on expression of genes expressed in the midbrain region, including OTX2, DMBX1, FOXA2, LMX1A, and on the absence of GB X2, which is a hindbrain marker. The impact of each effector on gene expression level is defined by a parameter called factor contribution that is calculated for each effector during the modeling.
To identify the recipe of stage 1 of differentiation, cells were treated with various effectors for 3 days and the gene expression of cells was modeled. […] This model consisted of 13 factors including LDN193189, PD173074, BLU9931, Purmorphamine, SC79, MK2206, ZM336372, PD0325901, CHIR99021, XAV939, UCLA-gp130, Tofacitinib and GO 6983.
LDN193189 and CHIR99021 are common in both optimization settings and the rest of the factors except Purmorphamine, have a factor contribution less than 10. Therefore, we focused on impact of addition of Purmorphamine to the original 4 effectors.
This assessment was done through dynamic profile analysis of the model with focus on expression of OTX2, DMBX1, LMX1A and FOXA2 (FIG. 3).
To assess the impact of elimination of each validated factor, we used dynamic profile analysis and compared the expression level of genes of interest in absence of each finalized factor while others are present.
In the stage 1 recipe, each of the five finalized factors were removed while the other four factors were present and the expression levels of OTX2, DMBX1, FOXA2 and LMX1A was assessed compared to the levels in the presence of all five factors (FIGS. 11A-B). […] Expression level of DMBX1 increased in absence of LDN193189, however values of OTX2, FOXA2 and LMX1A decreased.

[2] = system: stage 1 neural stem cells; assay: First 12-factor HD-DoE experiment, stage 2: additional 3 days after stage 1, gene expression modeled, with dynamic profile and factor criticality analysis; type: cell-based, human; settings: for FOXA2 expression level in absence of the factor / LMX1A expression level in absence of the factor: stage 2 recipe, first experiment model; for FOXA2 expression level in absence of the factor: 10,000 with all factors; for LMX1A expression level in absence of the factor: 30,000 with all factors
Protocol: To develop the recipe for each stage, the impact of agonists and antagonists of multiple signaling pathways (referred to herein as “effectors”) on the expression of two sets of 53 pre-selected genes after a 3-day treatment was tested and modeled. These effectors are small molecules or proteins that are commonly used during stepwise differentiation of stem cells to specific fates. The choice of the effectors to test was based on current literature on neural induction in the midbrain region of the developing brain and differentiation of stem cells to neural progenitors. To test the effectors, experiments with at least 8 factors were designed that can assess the response of cells to 48 or more different combinations of effectors in a range of concentrations. To analyze the models, we focused on expression of genes expressed in the midbrain region, including OTX2, DMBX1, FOXA2, LMX1A, and on the absence of GB X2, which is a hindbrain marker. The impact of each effector on gene expression level is defined by a parameter called factor contribution that is calculated for each effector during the modeling. To further guide the differentiation of midbrain-committed neural stem cells to neural progenitor cells at stage 2, we performed an additional HD-DoE experiment. We thereby obtained additional gene regulatory models that were used for preparation of differentiation protocol. The basis of this was a 12-factor HD-DoE experiment with focus on initiation of differentiation of cells toward midbrain neural progenitor cells for an additional 3 days after termination of stage 1 treatment. Here, we focused on expression of LMX1A and FOXA2 in neural progenitor cells with low to zero expression of GBX2. LMX1A had significant high expression level in the model with value of 47888. Therefore, we used optimization setting for this gene to identify the positive factors. The factors in this experiment included SC79, MK2206, ZM336372, PD0325901, CHIR99021, A 83-01, TTNPB, AGN193109, GW3965, SR9243, Purmorphamine and GSI-XX. […] Therefore, we used dynamic profile analysis to adjust the recipe for optimized expression of both LMX1A and FOXA2 genes and minimum expression of GBX2 (FIG. 7). It was observed that even without addition of Purmorphamine, expression level of FOXA2 was at 5000, therefore inclusion of this effector is not essential, however it can improve expression of FOXA2. […] A 83-01 was another factor with opposite effect on FOXA2 and LMX1A that was included in the final recipe. […] To assess the impact of elimination of each validated factor, we used dynamic profile analysis and compared the expression level of genes of interest in absence of each finalized factor while others are present. […] In the stage 2 recipe, each of the six finalized factors were removed while the other five factors were present and the expression levels of FOXA2, LMX1A and GBX2 were assessed, compared to the levels in the presence of all factors. According to the first experiment model, the absence of TTNPB lead to a rise of GBX2 expression, while the value of FOXA2 and LMX1A reduced drastically from 10,000 to 0 and 30,000 to 15,000, respectively. The absence of A 83-01 reduced the expression of FOXA2 from 10,000 to 7000, however, as expected, the value of LMX1A increased from 30,000 to 40,000. […] According to the second experiment model, the absence of BMP7 and MK2206 both reduced the level of FOXA2 while increasing the value of LMX1A, with BMP7 as the main effector that led to 0 expression of FOXA2.

[3] = system: stage 1 neural stem cells; assay: Second 12-factor HD-DoE experiment, stage 2: hiPSCs in stage 1 media 3 days, then 96 factor combinations for 3 days, with dynamic profile and factor criticality analysis; type: cell-based, human; settings: for impact on expression of GBX2: stage 2, second 12-factor experiment, dynamic profile; for FOXA2 expression level in absence of the factor / LMX1A expression level in absence of the factor: stage 2 recipe, second experiment model; for LMX1A expression level in absence of the factor: 4000 with all factors; for factor contribution: negative impact
Protocol: To test additional factors like FGF8 that is routinely used in midbrain differentiation protocols, we ran another 12-factor experiment consisting of LDN193189, BMP7, A 83-01, Activin A, Takinib, PD0325901, MK2206, FGF8b, AZD3147, MHY1485, GSI-XX and Yhhu 3792. Similar to the previous experiment, hiPSCs were treated with stage 1 media for 3 days and then treated with 96 conditions of combinations of the factors for an additional 3 days. When this model was optimized for maximum expression of FOXA2, BMP7 with factor contribution of 13.7 and MK2206 with 14.2 had the most impact on its expression followed by AZD 3147 with factor contribution of 10.9. […] Another difference was BMP7, which has a negative impact on LMX1A. However, the factor contribution is less than 10. Therefore, to evaluate the effect of interactions between the factors and the optimal condition for the expression of both FOXA2 and LMX1A, we used dynamic profile analysis (FIG. 10). […] To assess the impact of elimination of each validated factor, we used dynamic profile analysis and compared the expression level of genes of interest in absence of each finalized factor while others are present. […] In the stage 2 recipe, each of the six finalized factors were removed while the other five factors were present and the expression levels of FOXA2, LMX1A and GBX2 were assessed, compared to the levels in the presence of all factors. According to the first experiment model, the absence of TTNPB lead to a rise of GBX2 expression, while the value of FOXA2 and LMX1A reduced drastically from 10,000 to 0 and 30,000 to 15,000, respectively. The absence of A 83-01 reduced the expression of FOXA2 from 10,000 to 7000, however, as expected, the value of LMX1A increased from 30,000 to 40,000. […] According to the second experiment model, the absence of BMP7 and MK2206 both reduced the level of FOXA2 while increasing the value of LMX1A, with BMP7 as the main effector that led to 0 expression of FOXA2.

[4] = dynamic profile, Purmorphamine added to the original 4 effectors
[5] = stage 2, first 12-factor experiment, dynamic profile

Molecule: c1ccc2c(Oc3nc(Nc4ccc(N5CCOCC5)cc4)c4ncn(C5CCCCC5)c4n3)cccc2c1 [Purmorphamine]
- DMBX1 expression level [1, 4]: ~3000
- LMX1A expression level [1, 4]: ~450
- OTX2 expression level [1, 4]: ~11000
- LMX1A expression level in absence of the factor [1]: beneficial
- FOXA2 expression level in absence of the factor [1]: reduction
- DMBX1 expression level in absence of the factor [1]: beneficial
- OTX2 expression level in absence of the factor [1]: beneficial
- expression level of FOXA2 without addition of the effector ([2]; dynamic profile analysis, stage 2): 5000

Molecule: C/C(=C\c1ccc(C(=O)O)cc1)c1ccc2c(c1)C(C)(C)CCC2(C)C [TTNPB]
- FOXA2 expression level in absence of the factor [2]: 0
- LMX1A expression level in absence of the factor [2]: 15,000

Molecule: O=C(O)Cc1cccc(OCCCN(Cc2cccc(C(F)(F)F)c2Cl)CC(c2ccccc2)c2ccccc2)c1 [GW3965]
- FOXA2 expression level in absence of the factor [2]: 17,000
- LMX1A expression level in absence of the factor [2]: 10,000

Molecule: Cc1c[nH]c(-c2cnc(NCCNc3ccc(C#N)cn3)nc2-c2ccc(Cl)cc2Cl)n1 [CHIR99021]
- LMX1A expression level in absence of the factor [1]: reduced
- FOXA2 expression level in absence of the factor [1]: reduced
- DMBX1 expression level in absence of the factor [1]: reduced
- OTX2 expression level in absence of the factor [1]: reduced
- impact on expression of GBX2 [2, 5]: increases
- impact on expression of LMX1A [2, 5]: positive impacts

Molecule: Cc1cccc(-c2nn(C(=S)Nc3ccccc3)cc2-c2ccnc3ccccc23)n1 [A 83-01]
- FOXA2 expression level in absence of the factor [2]: 7000
- LMX1A expression level in absence of the factor [2]: 40,000

Molecule: O=C(NOC[C@H](O)CO)c1ccc(F)c(F)c1Nc1ccc(I)cc1F [PD0325901]
- LMX1A expression level in absence of the factor [1]: 500
- FOXA2 expression level in absence of the factor [1]: 700
- DMBX1 expression level in absence of the factor [1]: 900

Molecule: NC1(c2ccc(-c3nc4ccn5c(=O)[nH]nc5c4cc3-c3ccccc3)cc2)CCC1 [MK2206]
- LMX1A expression level in absence of the factor [1]: stayed the same
- FOXA2 expression level in absence of the factor [1]: stayed the same
- DMBX1 expression level in absence of the factor [1]: 1500
- OTX2 expression level in absence of the factor [1]: 9500
- impact on expression of GBX2 [3]: desirable impact
- FOXA2 expression level in absence of the factor [3]: reduced
- LMX1A expression level in absence of the factor [3]: increasing

Molecule: c1ccc2c(-c3cnn4cc(-c5ccc(N6CCNCC6)cc5)cnc34)ccnc2c1 [LDN193189]
- LMX1A expression level in absence of the factor [1]: decreased
- FOXA2 expression level in absence of the factor [1]: decreased
- DMBX1 expression level in absence of the factor [1]: increased
- OTX2 expression level in absence of the factor [1]: decreased

Molecule: COc1cccc(Oc2cccc3nc(Nc4ccc(C(C)C)cc4)nc(N)c23)c1 [Yhhu 3792]
- impact on expression of GBX2 [3]: positive effect

Molecule: C[C@H]1COCCN1c1cc(C2(S(=O)(=O)C3CC3)CC2)nc(-c2ccc(NC(=S)NCCO)cc2)n1 [AZD 3147]
- FOXA2 expression level in absence of the factor [3]: almost no effect
- LMX1A expression level in absence of the factor [3]: 2000

Molecule: FGF8b
- factor contribution ([3]; model optimized for maximum expression of FOXA2): 12.8
- factor contribution ([3]; model optimized for maximum expression of LMX1A): 16.9

B1: BMP7 (protein, UniProt P18075 293-431, looked up)
Bone morphogenetic protein 7: STGSKQRSQNRSKTPKNQEALRMANVAENSSSDQRQACKKHELYVSFRDLGWQDWIIAPEGYAAYYCEGECAFPLNSYMNATNHAIVQTLVHFINPETVPKPCCAPTQLNAISVLYFDDSSNVILKKYRNMVVRACGCH
notes: BMP pathway agonist
- FOXA2 expression level in absence of the factor [3]: 0
- LMX1A expression level in absence of the factor [3]: increasing

Reference: patent US20230027059A1, “METHODS AND COMPOSITIONS FOR GENERATING HUMAN MIDBRAIN NEURAL PROGENITOR CELLS” (Trallhead Biosystems Inc., priority 2021, published 2023)
